Experimental data reported in publication PMC3501516, “Anti-Diabetic Efficacy and Impact on Amino Acid Metabolism of GRA1, a Novel Small-Molecule Glucagon Receptor Antagonist” (PLoS ONE, 2012).
Marks after values point to notes of the source that are not given here.

Assays:
[1] = biological target: T1, human GCGR (hGCGR) (Homo sapiens, UniProt P47871); assay: Inhibition of glucagon-stimulated cAMP production in intact CHO cells expressing human GCGR; type: cell-based
T1 construct: expressed in transfected cells
Text: (§1) Transfected Chinese hamster ovary (CHO) cell lines were acquired and maintained as previously described, [20]. These included separate cell lines stably expressing human GCGR (hGCGR), mouse GCGR, rhesus GGCR, glucose-dependent insulinotropic peptide receptor (GIPR), GLP-1 receptor (GLP-1R), pituitary adenylate cyclase-activating polypeptide receptor type 1 (PAC1R), and vasoactive adenylate cyclase-activating polypeptide receptor type 2 (VPAC2R). Inhibition of glucagon binding to hGCGR was assayed in cell membranes prepared from the line of CHO cells that expressed the hGCGR. Functional antagonism was assayed by measuring the production of cAMP in intact CHO cells stimulated by agonists specific for their cognate receptors (i.e., glucagon for GCGR-expressing cell lines, GIP for the GIPR-expressing line, etc.). Primary human hepatocytes were obtained from In Vitro Technologies (Baltimore, MD) and glucagon-stimulated glycogenolysis was studied in these as previously described.

[2] = biological target: T2, GIPR (glucose-dependent insulinotropic peptide receptor) (Homo sapiens, UniProt P48546); assay: Inhibition of GIP-stimulated cAMP production in CHO cells expressing GIPR; type: cell-based
T2 sequence (P48546 22-466): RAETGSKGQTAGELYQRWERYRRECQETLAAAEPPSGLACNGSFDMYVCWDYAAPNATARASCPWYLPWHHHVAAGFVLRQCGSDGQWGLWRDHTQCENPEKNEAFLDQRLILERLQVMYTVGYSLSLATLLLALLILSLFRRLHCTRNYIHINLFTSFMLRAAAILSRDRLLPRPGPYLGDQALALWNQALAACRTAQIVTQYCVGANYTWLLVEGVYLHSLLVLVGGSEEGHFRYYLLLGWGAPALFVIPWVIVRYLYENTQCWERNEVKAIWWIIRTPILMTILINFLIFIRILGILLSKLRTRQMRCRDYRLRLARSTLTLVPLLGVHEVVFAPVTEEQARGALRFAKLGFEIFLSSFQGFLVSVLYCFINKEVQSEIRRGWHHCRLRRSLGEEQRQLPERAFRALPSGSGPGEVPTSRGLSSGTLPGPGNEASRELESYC
Experimental: Transfected Chinese hamster ovary (CHO) cell lines were acquired and maintained as previously described [17], [20]. These included separate cell lines stably expressing human GCGR (hGCGR), mouse GCGR, rhesus GGCR, glucose-dependent insulinotropic peptide receptor (GIPR), GLP-1 receptor (GLP-1R), pituitary adenylate cyclase-activating polypeptide receptor type 1 (PAC1R), and vasoactive adenylate cyclase-activating polypeptide receptor type 2 (VPAC2R). […] Functional antagonism was assayed by measuring the production of cAMP in intact CHO cells stimulated by agonists specific for their cognate receptors (i.e., glucagon for GCGR-expressing cell lines, GIP for the GIPR-expressing line, etc.).

[3] = biological target: T3, GLP-1R (GLP-1 receptor) (Homo sapiens, UniProt P43220); assay: Inhibition of GLP-1-stimulated cAMP production in CHO cells expressing GLP-1R; type: cell-based; details: human GLP-1R
T3 construct: expressed in transfected cells
Text: as §1

[4] = tested on: DIO hGCGR mice; assay: Chronic GRA1 treatment of diet-induced obese (DIO) hGCGR mice; type: in vivo, hGCGR mouse; details: for Free fatty acid, terminal plasma / Insulin, terminal plasma / LDL cholesterol, terminal plasma / Glucagon, terminal plasma / Triglyceride, terminal plasma / Non-LDL cholesterol, terminal plasma / Cholesterol, terminal plasma: 10 weeks; for Free fatty acid, terminal plasma: control 1.04±0.13; for Insulin, terminal plasma: control 8.5±2.0; for LDL cholesterol, terminal plasma: control 19.6±2.3; for Glucagon, terminal plasma: control 164±24; for Triglyceride, terminal plasma: control 181±11; for Non-LDL cholesterol, terminal plasma: control 205±12; for Cholesterol, terminal plasma: control 233±15
Text: The present study made use of a line of hGCGR-expressing mouse (“hGCGR mouse”) generated previously by substituting the hGCGR gene for the mouse GCGR gene. These mice were crossed with C57BL/6J.ob/+ mice (Jackson Laboratories, Bar Harbor, ME) to obtain an hGCGR.ob/+ mouse line. The hGCGR.ob/+ mice were then intercrossed to obtain hGCGR.ob/ob, hGCGR.ob/+, and hGCGR.+/+ mice (with the hGCGR.ob/+ and hGCGR.+/+ mice serving as littermate controls). […] obese (DIO) hGCGR mice were generated by maintaining hGCGR mice on a high-fat diet (HFD) in which 45–60% of calories were in fat (Product S3282, Bio-Serv, Frenchtown, NJ). High-fat-diet-streptozotocin-treated (HFD/STZ) diabetic mice were generated in-house as previously described.
Animals were dosed chronically with GRA1 and the DPP-4 inhibitor des-fluoro-sitagliptin by administering these agents as food admixtures. The admixtures were prepared in-house and by Research Diets (New Brunswick, NJ), with drug concentrations adjusted weekly on the basis of average food consumption and animal weight to provide targeted daily doses. In the GRA1 experiments, the targeted doses were 3, 6, 10, and 30 mg/kg•day. In des-fluoro-sitagliptin experiments, the targeted dose was 200 mg/kg•day, a relatively high amount necessary because this compound has a half-life in rodents of 1–2 h.
Plasma glucagon and active GLP-1 were measured using commercial ELISA kits (Linco Research Immunoassay, St. Charles, MO). […] Plasma insulin was determined by ELISA with a commercial kit (ALPCO Diagnostics, Windham, NH). Plasma concentrations of glycated hemoglobin A1c (HbA1c) were measured using a Micromat II test kit from Bio-Rad Laboratories (Hercules, CA). Total cholesterol, low-density lipoprotein cholesterol (LDL-c) and non-LDL-c, and aspartate aminotransferase were measured using a Roche P Modular Clinical Chemistry analyzer (Indianapolis, IN).
Figure 4 GRA1 lowers blood glucose in the DIO hGCGR and hGCGR.ob/ob mouse. Mean (±SEM) blood glucose concentrations in (A) non-fasted and (B) fasted DIO hGCGR mice treated with approximately 3 and 10 mg/kg·day GRA1 provided as a food admixture. (Additional data from this study are in Table 2). (C) Mean (±SEM) blood glucose concentrations in the hGCGR.ob/ob mouse following single oral doses of 1, 3, or 10 mg/kg GRA1 or vehicle. (D) Mean (±SEM) non-fasted blood glucose concentrations in hGCGR.ob/ob mice treated for 2–8 weeks with control diet or 10 mg/kg·day GRA1 administered as diet admixture. *p<0.05, **p<0.01, and ***p<0.001 in timepoint-matched comparisons with controls; n = 8 in each group.

T1 sequence (P47871 26-477): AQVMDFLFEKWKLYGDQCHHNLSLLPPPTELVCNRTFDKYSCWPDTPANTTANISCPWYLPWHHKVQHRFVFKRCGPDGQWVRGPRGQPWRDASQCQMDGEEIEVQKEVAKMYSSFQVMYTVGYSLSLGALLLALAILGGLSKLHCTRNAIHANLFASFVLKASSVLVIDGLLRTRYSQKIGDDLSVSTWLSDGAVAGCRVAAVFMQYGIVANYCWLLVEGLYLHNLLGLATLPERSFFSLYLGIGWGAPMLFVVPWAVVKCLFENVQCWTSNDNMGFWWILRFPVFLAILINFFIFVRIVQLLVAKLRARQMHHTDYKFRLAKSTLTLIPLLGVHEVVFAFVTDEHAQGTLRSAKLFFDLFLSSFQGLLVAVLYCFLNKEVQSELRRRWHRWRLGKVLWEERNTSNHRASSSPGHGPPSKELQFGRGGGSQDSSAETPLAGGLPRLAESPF
T3 sequence (P43220 24-463): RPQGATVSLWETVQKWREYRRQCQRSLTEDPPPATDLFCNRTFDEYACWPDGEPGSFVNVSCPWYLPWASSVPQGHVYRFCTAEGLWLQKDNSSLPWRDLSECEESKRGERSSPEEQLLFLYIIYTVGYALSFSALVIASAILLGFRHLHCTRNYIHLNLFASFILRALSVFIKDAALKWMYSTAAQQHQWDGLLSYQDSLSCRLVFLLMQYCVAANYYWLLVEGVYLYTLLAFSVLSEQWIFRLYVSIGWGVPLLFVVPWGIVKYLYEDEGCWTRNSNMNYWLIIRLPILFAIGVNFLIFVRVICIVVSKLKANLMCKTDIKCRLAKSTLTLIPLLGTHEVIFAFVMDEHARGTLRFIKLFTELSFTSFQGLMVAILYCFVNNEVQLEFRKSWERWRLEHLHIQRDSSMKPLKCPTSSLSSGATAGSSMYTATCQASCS

COc1ccc2cc(-c3cc(-c4cc(C(F)(F)F)ccc4F)nn3[C@@H](C)c3ccc(C(=O)NCCC(=O)O)cc3)ccc2c1 [GRA1, N-[4-((1S)-1-{3-(2-fluoro-5-trifluoromethylphenyl)-5-[6-methoxynaphth-2-yl]-1H-pyrazol-1-yl}ethyl)benzoyl]-β-alanine]
IC50 [1]: 12 nM
IC50 [2]: 933 nM
IC50 [3]: 7900 nM
Effect on blood glucose ([4]; 1–10 weeks, 3 or 10 mg/kg•day): significant, sustained reductions in blood glucose
Food intake and body weight ([4]; 3 or 10 mg/kg•day (data not shown)): not affected
Increase of plasma glucagon ([4]; 3 or 10 mg/kg•day (either dose)): approximately 2 fold
Free fatty acid, terminal plasma ([4]; 3 mg/kg•day): 0.84 ± 0.08 mM
Insulin, terminal plasma ([4]; 3 mg/kg•day): 4.2 ± 1.1 ng/mL
LDL cholesterol, terminal plasma ([4]; 3 mg/kg•day): 25.4±2.9 mg/dLl
Glucagon, terminal plasma ([4]; 3 mg/kg•day): 374±53* pg/mL
Triglyceride, terminal plasma ([4]; 3 mg/kg•day): 141±13* mg/dL
Non-LDL cholesterol, terminal plasma ([4]; 3 mg/kg•day): 216 ± 16 mg/dL
Cholesterol, terminal plasma ([4]; 3 mg/kg•day): 255 ± 17 mg/dL
Free fatty acid, terminal plasma ([4]; 10 mg/kg•day): 0.69±0.04* mM
Insulin, terminal plasma ([4]; 10 mg/kg•day): 5.7 ± 1.4 ng/mL
LDL cholesterol, terminal plasma ([4]; 10 mg/kg•day): 19.4±2.4 mg/dLl
Glucagon, terminal plasma ([4]; 10 mg/kg•day): 343 ± 85 pg/mL
Triglyceride, terminal plasma ([4]; 10 mg/kg•day): 122±10** mg/dL
Non-LDL cholesterol, terminal plasma ([4]; 10 mg/kg•day): 186 ± 7 mg/dL
Cholesterol, terminal plasma ([4]; 10 mg/kg•day): 213 ± 8 mg/dL
Islet morphology and ratio of insulin-positive to glucagon-positive cells (pancreas immunohistochemistry) ([4]; treated vs control (data not shown)): no significant differences
